Values of other authors as cited in US20190381039A1, “USE OF sGC STIMULATORS FOR THE TREATMENT OF ESOPHAGEAL MOTILITY DISORDERS” (Cyclerion Therapeutics, Inc., priority 2016, published 2019).

Tests used:
[1] = system: patients with idiopathic achalasia
[2] = system: patients with esophageal motility abnormalities
[3] = report from 2000, patients with esophageal dysmotility

CCCc1nn(C)c2c(=O)[nH]c(-c3cc(S(=O)(=O)N4CCN(C)CC4)ccc3OCC)nc12 [sildenafil]
utility in achalasia patients (off label) ([1]; Bortolotti et al., Gastroenterology 118(2): 253-7, 2000): some limited utility
side effects reported by patients ([1]; report from 2000): dizziness and headaches
LES pressure [1, 3]: able to reduce LES pressure
clinical symptoms [1, 3]: clinical symptoms were not improved

CN(C)CCCN1c2ccccc2CCc2ccccc21 [imipramine]
relief of chest pain [2]: effective in relieving chest pain

O=c1n(CCCN2CCN(c3cccc(Cl)c3)CC2)nc2ccccn12 [trazodone]
relief of chest pain [2]: effective in relieving chest pain
